{"source": "PubChem BioAssay AID1418", "about": "(Emory University Molecular Libraries Screening Center, 2008)", "note": "Activity calls are given as the source filed them. The rule behind the calls is not given here."}
{"biological_target": "Induced myeloid leukemia cell differentiation protein Mcl-1 (Homo sapiens) (UniProt Q07820)", "sequence (Q07820 whole entry, looked up)": "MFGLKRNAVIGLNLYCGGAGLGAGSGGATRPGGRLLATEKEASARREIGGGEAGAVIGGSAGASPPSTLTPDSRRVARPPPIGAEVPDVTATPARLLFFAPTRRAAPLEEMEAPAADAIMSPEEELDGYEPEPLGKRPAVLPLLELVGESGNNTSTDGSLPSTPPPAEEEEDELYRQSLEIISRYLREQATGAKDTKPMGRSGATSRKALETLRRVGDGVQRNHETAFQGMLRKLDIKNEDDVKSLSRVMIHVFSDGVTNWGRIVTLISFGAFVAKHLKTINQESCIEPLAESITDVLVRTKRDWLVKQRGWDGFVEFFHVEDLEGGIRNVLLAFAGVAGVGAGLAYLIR", "experiment": "blockers of Bid binding to Mcl-1 – biochemical, TR-FRET, dose response (AID 1418)", "conditions": "Mcl-1/Bid peptide binding, TR-FRET (europium/Dy647), 2 hr"}
{"compound": "O=C(O)c1ccc(CS(=O)(=O)Cc2ccccc2F)o1", "IC50": "> 54 µM (inactive)"}
{"compound": "O=C(ONc1ccc(N=NC(=O)c2ccccc2O)cc1)c1ccccc1", "IC50": "inactive"}
{"compound": "O=C(Nc1sc2c(c1C(=O)O)CCC2)c1ccccc1", "IC50": "> 54 µM (inactive)"}
{"compound": "COc1ccc(C2CC(c3ccccc3)Nc3nc(N)nn32)cc1", "note": "(stereo unspecified)", "IC50": "> 54 µM (inactive)"}
{"compound": "Cc1ccc2cc(/C=N/NC(=O)CN3CCOCC3)c(Cl)nc2c1", "IC50": "> 54 µM (inactive)"}
{"compound": "O=c1c2ccccc2nc(/C=C/c2cccnc2)n1Cc1ccccc1", "IC50": "0.54 µM"}
{"compound": "CC1(c2cccc3ccccc23)NC(=O)N(CC(=O)NC2CCS(=O)(=O)C2)C1=O", "note": "(stereo unspecified)", "IC50": "> 54 µM (inactive)"}
{"compound": "COc1ccc(-n2cc(-c3ccc(OC(F)F)cc3)[n+]3c2CCCCC3)cc1", "IC50": "> 54 µM (inactive)"}
{"compound": "COCCN1Cc2cccc(C(=O)Nc3cccc(C)c3C)c2C1=O", "IC50": "> 54 µM (inactive)"}
{"compound": "N#C/C(=C1/CCCCCN1)c1nc2ccccc2s1", "IC50": "> 54 µM (inactive)"}
{"compound": "COCC(O)CSc1nc(C)[nH]c1[N+](=O)[O-]", "note": "(stereo unspecified)", "IC50": "> 54 µM (inactive)"}
{"compound": "CCNc1ccc2c(Cl)cc(=O)oc2c1", "IC50": "> 54 µM (inactive)"}
{"compound": "COc1cccc2c1c(NC(=O)Nc1ccc(F)cc1F)nn2C", "IC50": "> 54 µM (inactive)"}
{"compound": "Oc1ccc(/C=N/Nc2ccnc3cc(Cl)ccc23)c(O)c1", "IC50": "6.69 µM"}
{"compound": "O=C(CCC(=O)c1ccc(Oc2ccccc2)cc1)Nc1cccc(Cl)c1", "IC50": "> 54 µM (inactive)"}
{"compound": "NS(=O)(=O)c1ccc(CCNC(=O)C(=O)c2c[nH]c3ccccc23)cc1", "IC50": "> 54 µM (inactive)"}
{"compound": "O=C(Nc1ccccc1)NC1CCS(=O)(=O)C1", "note": "(stereo unspecified)", "IC50": "> 54 µM (inactive)"}
{"compound": "O=C1NN(c2ccc(Cl)c(Cl)c2)C(=O)/C1=C/c1cccc(OC(=O)c2cccs2)c1", "IC50": "6.57 µM"}
{"compound": "COCCn1c(SCC(=O)NC(=O)NCc2ccccc2)nc2ccccc21", "IC50": "> 54 µM (inactive)"}
{"compound": "Cc1cc(C)nc(N(C#N)S(=O)(=O)c2ccccc2Cl)n1", "IC50": "> 54 µM (inactive)"}
{"compound": "Cc1cc(-c2nc3c4c5c(sc4[nH]c(=O)n3n2)CCC5)c(C)o1", "IC50": "> 54 µM (inactive)"}
{"compound": "CCn1c(C)cc(/C=C2/NC(=O)N(CC(=O)Nc3cccc(C)c3)C2=O)c1C", "IC50": "3.19 µM"}
{"compound": "CC1=NOC(=O)/C1=C/c1ccc(-c2ccc(Cl)cc2)o1", "IC50": "8.87 µM"}
{"compound": "C#CCOCCOCCOCCNc1nc(N2CCN(C(=O)[C@H](CCCCN)n3cc(C(N)CC(C)C)nn3)CC2)nc(N2CCN(C(=O)[C@H](CCC(=O)O)n3cc(C(N)[C@H](C)CC)nn3)CC2)n1", "note": "(stereo partly specified)", "IC50": "22.2 µM"}
{"compound": "Cc1nc(CSc2nc3[nH]ncc3c(=O)n2-c2ccccc2)cs1", "IC50": "> 54 µM (inactive)"}
{"compound": "Cc1ccc(OCC(=O)NCc2ccco2)c([N+](=O)[O-])n1", "IC50": "> 54 µM (inactive)"}
{"compound": "COc1cc(NC(=O)COc2ccccc2)c(OC)cc1NC(C)=O", "IC50": "> 54 µM (inactive)"}
{"compound": "O=C(COc1cccc2c1CCN(Cc1ccc(Br)cc1)C2=O)NCc1ccco1", "IC50": "> 54 µM (inactive)"}
{"compound": "C/C(=N\\Nc1cccc(C(=O)O)c1)c1ccc2c(c1)Nc1ccccc1S2", "IC50": "0.76 µM"}
{"compound": "O=S(=O)(c1ccccc1)N1CCN(Cc2ccccc2C(F)(F)F)CC1", "IC50": "> 54 µM (inactive)"}
{"compound": "Cc1[nH]n2c(=O)c3c(nc2c1-c1ccc(F)cc1)CCCC3", "IC50": "> 54 µM (inactive)"}
{"compound": "CCOc1cc(C=C2C(=O)c3ccccc3C2=O)ccc1OCC(=O)Nc1ccc(C)cc1", "IC50": "1.2 µM"}
{"compound": "O=C(O)CCCC(=O)Nc1cccc(C(=O)Nc2ccccc2C(=O)O)c1", "IC50": "> 54 µM (inactive)"}
{"compound": "CC(CCC(=O)Nc1nncs1)C(=O)O", "note": "(stereo unspecified)", "IC50": "> 54 µM (inactive)"}
{"compound": "O=C(O)COc1ccccc1C(Nc1cccnc1)c1cc(Cl)c2cccnc2c1O", "note": "(stereo unspecified)", "IC50": "2.52 µM"}
{"compound": "COc1cccc(NC(=O)C(=O)N/N=C/c2cc(C)n(-c3ccc(Cl)c(Cl)c3)c2C)c1", "IC50": "> 54 µM (inactive)"}
{"compound": "CCOc1cc(/C=C2\\C(=O)N(c3nc(-c4ccc(Br)cc4)cs3)N=C2c2ccccc2)ccc1O", "IC50": "0.75 µM"}
{"compound": "Cc1ccc(C(=O)NNC(=O)CSc2nnc3c(n2)[nH]c2ccc(F)cc23)cc1", "IC50": "> 54 µM (inactive)"}
{"compound": "Cc1ccc2[nH]c(=O)c(-c3nc4cc(C)ccn4c3NCc3ccco3)cc2c1", "IC50": "12.6 µM"}
{"compound": "Cc1ccc(C(=O)NC(C)c2nc3ccccc3n2CC(=O)Nc2c(C)cc(C)cc2C)cc1", "note": "(stereo unspecified)", "IC50": "0.45 µM"}
{"compound": "COCC(=O)Nc1ncc(S(=O)(=O)c2ccc([N+](=O)[O-])cc2)s1", "IC50": "> 54 µM (inactive)"}
{"compound": "O=C(COc1ccccc1)N1CCN(Cc2c[nH]c3ccccc23)CC1", "IC50": "> 54 µM (inactive)"}
{"compound": "O=C(Nc1cnn(C23CC4CC(CC(C4)C2)C3)c1)c1cnn2c(C(F)(F)F)cc(-c3ccco3)nc12", "IC50": "1.38 µM"}
{"compound": "COc1ccc(Nc2ncc(C(=O)N3CCN(c4ccc(F)cc4)CC3)c3ccccc23)cc1", "IC50": "> 54 µM (inactive)"}
{"compound": "CSC1=N/C(=C\\c2ccccc2F)C(=O)S1", "IC50": "> 54 µM (inactive)"}
{"compound": "O=C(CNc1ccc2ccccc2c1)N/N=C/c1ccc([N+](=O)[O-])o1", "IC50": "> 54 µM (inactive)"}
{"compound": "Cc1csc(NC(=O)C2CCN(S(=O)(=O)c3cccs3)CC2)n1", "IC50": "> 54 µM (inactive)"}
{"compound": "CC(C)(C)c1c(Cl)c(O)c(-c2ccccc2)c(=O)n1-c1ccccc1", "IC50": "0.68 µM"}
{"compound": "CCOC(=O)c1c(NC(=O)N/N=C/c2ccc(O)c(OC)c2)sc(C(C)=O)c1C", "IC50": "0.53 µM"}
{"compound": "Cc1ccc(S(=O)(=O)CCC(=O)OCC(=O)Nc2ncc(Cl)cc2Cl)cc1", "IC50": "> 54 µM (inactive)"}
{"compound": "COc1ccc(/C=N/NS(=O)(=O)c2ccccc2)cc1OC(=O)c1ccc(C)cc1", "IC50": "> 54 µM (inactive)"}
{"compound": "CCOc1ccc(-n2c(-c3ccoc3)nc3ccccc3c2=O)cc1", "IC50": "> 54 µM (inactive)"}
{"compound": "COc1ccc(C(=O)NCc2nnc(SCC(=O)N3CCCCC3)o2)cc1OC", "IC50": "> 54 µM (inactive)"}
{"compound": "CN(NC(=O)COc1ccccc1)c1ccccc1", "IC50": "> 54 µM (inactive)"}
{"compound": "COCCCNCC(=O)Nc1sc(C)c(C)c1C(=O)OC", "IC50": "> 54 µM (inactive)"}
{"compound": "O=C(O)c1cnn2c(C(F)(F)F)cc(-c3ccco3)nc12", "IC50": "> 54 µM (inactive)"}
{"compound": "CCN1C(=O)/C(=c2\\s/c(=C3\\Sc4ccccc4N3C)c(=O)n2C)N(C)C1=S", "IC50": "inactive"}
{"compound": "Cc1cccc(C)c1NC(=O)C1c2ccccc2Oc2ccccc21", "IC50": "> 54 µM (inactive)"}
{"compound": "CCc1c(C(=O)Nc2cc(C)ccc2OC)[nH]c(C)c1C(C)=O", "IC50": "> 54 µM (inactive)"}
{"compound": "COc1cccc(C(=O)Nc2ccc3nc(N4CCN(c5ncccn5)CC4)cc(C)c3c2)c1OC", "IC50": "0.53 µM"}
{"compound": "Cc1nc(C)n(CC(O)COc2ccc3c(c2)CCC3)n1", "note": "(stereo unspecified)", "IC50": "> 54 µM (inactive)"}
{"compound": "COc1ccccc1C1C2=C(N=c3s/c(=C/c4cccc(OCC(=O)O)c4)c(=O)n31)c1ccccc1CC2", "note": "(stereo unspecified)", "IC50": "11.2 µM"}
{"compound": "CCNc1ccc2noc3c2c1C(=O)c1ccccc1-3", "IC50": "14.7 µM"}
{"compound": "Cc1ccc(CNC(=O)c2ccc3nc4[nH]c5ccccc5c4nc3c2)cc1", "IC50": "6.82 µM"}
{"compound": "O=C(Nc1ccc(F)cc1)N1CCCN(c2ccc(C(F)(F)F)cn2)CC1", "IC50": "> 54 µM (inactive)"}
{"compound": "CCN(CC)c1ccc(CNc2nc3ccccc3n2C)cc1", "IC50": "> 54 µM (inactive)"}
{"compound": "Oc1cc2c(cc1C(c1ccc(Cl)c(Cl)c1)N1CCCC1)OCO2", "note": "(stereo unspecified)", "IC50": "0.59 µM"}
{"compound": "Fc1ccccc1NC(=S)N1CCN(Cc2ccc3c(c2)OCO3)CC1", "IC50": "> 54 µM (inactive)"}
{"compound": "C#CCOCCOCCOCCNc1nc(N2CCN(C(=O)[C@H](Cc3ccc(O)cc3)n3cc([C@@H](N)C(C)CC)nn3)CC2)nc(N2CCN(C(=O)[C@H](Cc3cc4ccccc4[nH]3)n3cc([C@@H](N)C(C)CC)nn3)CC2)n1", "note": "(stereo partly specified)", "IC50": "0.82 µM"}
{"compound": "CCN(CC)S(=O)(=O)c1ccc(NC(=O)Nc2cccc(C(F)(F)F)c2)cc1", "IC50": "> 54 µM (inactive)"}
{"compound": "O=C1CN(C(=O)CNCc2ccccc2)c2ccccc2N1", "IC50": "> 54 µM (inactive)"}
